According to patent US6294573A, “Reverse hydroxamate inhibitors of matrix metalloproteinases” (Abbott Laboratories, priority 2000, dated 2001):
pIC50: −log10 of the molar value.

Biological target: T1, Recombinant truncated stromelysin (human sequence) (Homo sapiens, UniProt P08254)
T1 construct: made in house; host or cells: E. coli
Test: Inhibition of stromelysin (cleavage of thiopeptide ester substrate, DTNB readout at 405 nm)
Assay type: biochemical
Conditions: 30 minute assay, ambient temperature, pH 6.5, thiopeptide ester substrate
Description: The efficacy of the compounds of this invention as matrix metalloproteinase inhibitors was determined by measuring the inhibition of stromelysin. The inhibition of stromelysin by the compounds of this invention was determined as follows: Recombinant truncated stromelysin (human sequence) produced in E. coli was prepared by expression and purification of the protein as described by Ye et al. (Biochemistry, 1992, 31, 11231-11235, which is incorporated herein by reference). The enzyme was assayed by its cleavage of the thiopeptide ester substrate Ac-Pro-Leu-Gly-[2-mercapto-4-methylpentanoyl]-Leu-Gly-OEt as described by Weingarten and Feder (Anal. Biochem., 1985, 147, 437-440 (1985), which is incorporated herein by reference) as a substrate of vertebrate collagenase. The reported conditions were modified to allow assays to be carried out in a microtiter plate. Upon hydrolysis of the thioester bond, the released thiol group reacted rapidly with 5,5'-dithio-bis(2-nitrobenzoic acid) (DTNB) to produce a yellow color which was measured by a microtiter plate reader set at 405 nm. The rates of cleavage of the substrate by stromelysin in the presence or absence of inhibitors were measured in a 30 minute assay at ambient temperature. […] The potency of the compounds [IC50 ] was calculated from the inhibition/inhibitor concentration data.

T1 sequence (P08254 100-273 limits assumed): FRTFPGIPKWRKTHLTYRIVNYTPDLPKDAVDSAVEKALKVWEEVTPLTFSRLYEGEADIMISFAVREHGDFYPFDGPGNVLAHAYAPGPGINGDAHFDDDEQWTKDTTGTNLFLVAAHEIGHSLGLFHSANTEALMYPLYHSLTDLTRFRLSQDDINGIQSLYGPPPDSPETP

pIC50: 7.77
Compound: CN1C(=O)N(CCC(COc2ccc(-c3ccc(C#N)cc3)cc2)N(O)C=O)C(=O)C1(C)C (racemic) [Example 5, (±)-N-[1-[[(4'-cyano-[1,1'-biphenyl]-4-yl)oxy]methyl]-3-(3,4,4-trimethyl-2,5-dioxo-1-imidazolidinyl)propyl]-N-hydroxyformamide]
